The record followed here is ChEMBL document CHEMBL1146823 (Bioorg Med Chem Lett, 2004).

For one experiment, the target named is Carbonic anhydrase 1 (Homo sapiens, UniProt P00915).
Chain of Carbonic anhydrase 1 (P00915 whole entry): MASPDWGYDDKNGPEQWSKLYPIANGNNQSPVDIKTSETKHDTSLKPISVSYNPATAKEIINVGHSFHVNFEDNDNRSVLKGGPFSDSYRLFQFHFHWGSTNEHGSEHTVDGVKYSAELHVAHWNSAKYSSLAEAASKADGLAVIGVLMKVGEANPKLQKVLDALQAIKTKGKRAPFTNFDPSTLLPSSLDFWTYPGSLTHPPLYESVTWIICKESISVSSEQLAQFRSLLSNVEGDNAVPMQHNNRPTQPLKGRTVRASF
Description: Inhibitory activity of compound against human carbonic anhydrase I
In the case of `C[C@]12CC[C@@H]3c4ccc(OS(N)(=O)=O)cc4CCC3[C@@H]1CCC2=O` (single isomer, unassigned) [EMATE], the IC50 – broadly, the concentration needed to halve the response being measured – amounted to 37 nM.

The target in a further experiment is T1, Carbonic anhydrase 4 (Bos taurus, UniProt Q95323).
T1 sequence (Q95323 whole entry): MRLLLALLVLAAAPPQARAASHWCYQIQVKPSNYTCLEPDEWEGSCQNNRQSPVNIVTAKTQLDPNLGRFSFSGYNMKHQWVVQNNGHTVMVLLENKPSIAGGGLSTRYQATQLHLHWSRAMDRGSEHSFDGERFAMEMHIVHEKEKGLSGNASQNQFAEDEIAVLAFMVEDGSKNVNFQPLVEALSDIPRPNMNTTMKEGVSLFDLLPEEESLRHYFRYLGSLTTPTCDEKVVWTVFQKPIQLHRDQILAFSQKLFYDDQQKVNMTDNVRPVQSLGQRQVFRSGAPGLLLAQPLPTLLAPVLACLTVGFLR
Description: Inhibitory activity of compound against bovine carbonic anhydrase IV
In turn, `NS(=O)(=O)c1ccc(S(=O)(=O)Nc2cccc3c(Cl)c[nH]c23)cc1` had a concentration for half-maximal inhibition (IC50) of 65 nM.

In turn, `Cc1ccc(-c2cc(C(F)(F)F)nn2-c2ccc(S(N)(=O)=O)cc2)cc1` [CELECOXIB] came in with an IC50 of 290 nM.

With `NS(=O)(=O)c1cc(Cl)c(Cl)c(S(N)(=O)=O)c1` [DICHLORPHENAMIDE], the IC50 was found to be 380 nM.

The compound `CC(=O)/N=c1/sc(S(N)(=O)=O)nn1C` [METHAZOLAMIDE] gave an IC50 of […].

`CCN1CCCC1CNC(=O)c1cc(S(N)(=O)=O)ccc1OC` (configuration not stated) [SULPIRIDE] returned an IC50 of 620 nM.

`CC1(C)O[C@@H]2[C@@H](CO[C@@]3(COS(N)(=O)=O)OC(C)(C)O[C@@H]23)O1` [TOPIRAMATE]: the IC50 came out at 54 nM.
